Tested on: Stress protein genes
Assay: DNA chip mRNA expression in yeast, stress protein genes (Table 6)
Type: cell-based, Saccharomyces cerevisiae S288C
Summary of the method: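 Chemical exposure: 2 h, log-phase S. cerevisiae S288C, YPD, 25° C., dose set to inhibit growth without death. Profiling: mRNA labeled by reverse transcription with Cy3- or Cy5-dUTP, hybridized to whole-genome array. Output: fluorescence ratio against untreated culture.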

SMILES: C=CC=O [(14), acrolein]
- The level of expressed mRNA in the presence of chemical substance/The level of expressed mRNA in the absence of chemical substance (yeast gene YAL005C): 0.4
- The level of expressed mRNA in the presence of chemical substance/The level of expressed mRNA in the absence of chemical substance (yeast gene YAL015C): 1.6
- The level of expressed mRNA in the presence of chemical substance/The level of expressed mRNA in the absence of chemical substance (yeast gene YBL075C): 1.1
- The level of expressed mRNA in the presence of chemical substance/The level of expressed mRNA in the absence of chemical substance (yeast gene YBL093C): 1.0
- The level of expressed mRNA in the presence of chemical substance/The level of expressed mRNA in the absence of chemical substance (yeast gene YBR044C): 0.9
- The level of expressed mRNA in the presence of chemical substance/The level of expressed mRNA in the absence of chemical substance (yeast gene YBR054W): 1.0
- The level of expressed mRNA in the presence of chemical substance/The level of expressed mRNA in the absence of chemical substance (yeast gene YBR067C): 0.7
- The level of expressed mRNA in the presence of chemical substance/The level of expressed mRNA in the absence of chemical substance (yeast gene YBR072W): 5.8
- The level of expressed mRNA in the presence of chemical substance/The level of expressed mRNA in the absence of chemical substance (yeast gene YBR126C): 0.7
- The level of expressed mRNA in the presence of chemical substance/The level of expressed mRNA in the absence of chemical substance (yeast gene YBR169C): 1.1
- The level of expressed mRNA in the presence of chemical substance/The level of expressed mRNA in the absence of chemical substance (yeast gene YCL035C): 2.5
- The level of expressed mRNA in the presence of chemical substance/The level of expressed mRNA in the absence of chemical substance (yeast gene YCR021C): 1.6
- The level of expressed mRNA in the presence of chemical substance/The level of expressed mRNA in the absence of chemical substance (yeast gene YCR060W): 1.7
- The level of expressed mRNA in the presence of chemical substance/The level of expressed mRNA in the absence of chemical substance (yeast gene YCR083W): 2.4
- The level of expressed mRNA in the presence of chemical substance/The level of expressed mRNA in the absence of chemical substance (yeast gene YDL022W): 0.8
- The level of expressed mRNA in the presence of chemical substance/The level of expressed mRNA in the absence of chemical substance (yeast gene YDL025C): 1.7
- The level of expressed mRNA in the presence of chemical substance/The level of expressed mRNA in the absence of chemical substance (yeast gene YDR033W): 1.0
- The level of expressed mRNA in the presence of chemical substance/The level of expressed mRNA in the absence of chemical substance (yeast gene YDR077W): 0.3
- The level of expressed mRNA in the presence of chemical substance/The level of expressed mRNA in the absence of chemical substance (yeast gene YDR098C): 1.5
- The level of expressed mRNA in the presence of chemical substance/The level of expressed mRNA in the absence of chemical substance (yeast gene YDR155C): 1.0
- The level of expressed mRNA in the presence of chemical substance/The level of expressed mRNA in the absence of chemical substance (yeast gene YDR258C): 1.5
- The level of expressed mRNA in the presence of chemical substance/The level of expressed mRNA in the absence of chemical substance (yeast gene YDR293C): 0.8
- The level of expressed mRNA in the presence of chemical substance/The level of expressed mRNA in the absence of chemical substance (yeast gene YDR436W): 1.2
- The level of expressed mRNA in the presence of chemical substance/The level of expressed mRNA in the absence of chemical substance (yeast gene YDR513W): 2.0
- The level of expressed mRNA in the presence of chemical substance/The level of expressed mRNA in the absence of chemical substance (yeast gene YDR519W): 1.3
- The level of expressed mRNA in the presence of chemical substance/The level of expressed mRNA in the absence of chemical substance (yeast gene YEL030W): 0.7
- The level of expressed mRNA in the presence of chemical substance/The level of expressed mRNA in the absence of chemical substance (yeast gene YEL039C): 1.4
- The level of expressed mRNA in the presence of chemical substance/The level of expressed mRNA in the absence of chemical substance (yeast gene YER042W): 5.2
- The level of expressed mRNA in the presence of chemical substance/The level of expressed mRNA in the absence of chemical substance (yeast gene YER057C): 1.4
- The level of expressed mRNA in the presence of chemical substance/The level of expressed mRNA in the absence of chemical substance (yeast gene YER103W): 0.9
- The level of expressed mRNA in the presence of chemical substance/The level of expressed mRNA in the absence of chemical substance (yeast gene YER125W): 0.7
- The level of expressed mRNA in the presence of chemical substance/The level of expressed mRNA in the absence of chemical substance (yeast gene YFL014W): 7.3
- The level of expressed mRNA in the presence of chemical substance/The level of expressed mRNA in the absence of chemical substance (yeast gene YFL016C): 0.8
- The level of expressed mRNA in the presence of chemical substance/The level of expressed mRNA in the absence of chemical substance (yeast gene YFL020C): 1.0
- The level of expressed mRNA in the presence of chemical substance/The level of expressed mRNA in the absence of chemical substance (yeast gene YFR052W): 3.3
- The level of expressed mRNA in the presence of chemical substance/The level of expressed mRNA in the absence of chemical substance (yeast gene YGL073W): 1.2
- The level of expressed mRNA in the presence of chemical substance/The level of expressed mRNA in the absence of chemical substance (yeast gene YGL115W): 1.2
- The level of expressed mRNA in the presence of chemical substance/The level of expressed mRNA in the absence of chemical substance (yeast gene YGL181W): 1.0
- The level of expressed mRNA in the presence of chemical substance/The level of expressed mRNA in the absence of chemical substance (yeast gene YGR088W): 1.3
- The level of expressed mRNA in the presence of chemical substance/The level of expressed mRNA in the absence of chemical substance (yeast gene YHL028W): 1.3
- The level of expressed mRNA in the presence of chemical substance/The level of expressed mRNA in the absence of chemical substance (yeast gene YHL046C): 1.4
- The level of expressed mRNA in the presence of chemical substance/The level of expressed mRNA in the absence of chemical substance (yeast gene YHR030C): 1.1
- The level of expressed mRNA in the presence of chemical substance/The level of expressed mRNA in the absence of chemical substance (yeast gene YHR057C): 1.9
- The level of expressed mRNA in the presence of chemical substance/The level of expressed mRNA in the absence of chemical substance (yeast gene YHR104W): 1.5
- The level of expressed mRNA in the presence of chemical substance/The level of expressed mRNA in the absence of chemical substance (yeast gene YIL011W): 0.5
- The level of expressed mRNA in the presence of chemical substance/The level of expressed mRNA in the absence of chemical substance (yeast gene YIL033C): 0.7
- The level of expressed mRNA in the presence of chemical substance/The level of expressed mRNA in the absence of chemical substance (yeast gene YIR037W): 2.3
- The level of expressed mRNA in the presence of chemical substance/The level of expressed mRNA in the absence of chemical substance (yeast gene YIR038C): 2.5
- The level of expressed mRNA in the presence of chemical substance/The level of expressed mRNA in the absence of chemical substance (yeast gene YJL128C): 0.8
- The level of expressed mRNA in the presence of chemical substance/The level of expressed mRNA in the absence of chemical substance (yeast gene YJL158C): 0.5
- The level of expressed mRNA in the presence of chemical substance/The level of expressed mRNA in the absence of chemical substance (yeast gene YJL159W): 0.6
- The level of expressed mRNA in the presence of chemical substance/The level of expressed mRNA in the absence of chemical substance (yeast gene YJL165C): 0.9
- The level of expressed mRNA in the presence of chemical substance/The level of expressed mRNA in the absence of chemical substance (yeast gene YJR045C): 0.5
- The level of expressed mRNA in the presence of chemical substance/The level of expressed mRNA in the absence of chemical substance (yeast gene YJR090C): 1.0
- The level of expressed mRNA in the presence of chemical substance/The level of expressed mRNA in the absence of chemical substance (yeast gene YKL161C): 1.4
- The level of expressed mRNA in the presence of chemical substance/The level of expressed mRNA in the absence of chemical substance (yeast gene YKL163W): 0.5
- The level of expressed mRNA in the presence of chemical substance/The level of expressed mRNA in the absence of chemical substance (yeast gene YKL164C): 0.3
- The level of expressed mRNA in the presence of chemical substance/The level of expressed mRNA in the absence of chemical substance (yeast gene YKL210W): 0.8
- The level of expressed mRNA in the presence of chemical substance/The level of expressed mRNA in the absence of chemical substance (yeast gene YKR053C): 1.3
- The level of expressed mRNA in the presence of chemical substance/The level of expressed mRNA in the absence of chemical substance (yeast gene YLL024C): 0.4
- The level of expressed mRNA in the presence of chemical substance/The level of expressed mRNA in the absence of chemical substance (yeast gene YLL026W): 0.8
- The level of expressed mRNA in the presence of chemical substance/The level of expressed mRNA in the absence of chemical substance (yeast gene YLL039C): 1.4
- The level of expressed mRNA in the presence of chemical substance/The level of expressed mRNA in the absence of chemical substance (yeast gene YLL060C): 10.6
- The level of expressed mRNA in the presence of chemical substance/The level of expressed mRNA in the absence of chemical substance (yeast gene YLR006C): 1.0
- The level of expressed mRNA in the presence of chemical substance/The level of expressed mRNA in the absence of chemical substance (yeast gene YLR109W): 2.3
- The level of expressed mRNA in the presence of chemical substance/The level of expressed mRNA in the absence of chemical substance (yeast gene YLR259C): 0.8
- The level of expressed mRNA in the presence of chemical substance/The level of expressed mRNA in the absence of chemical substance (yeast gene YML007W): 1.2
- The level of expressed mRNA in the presence of chemical substance/The level of expressed mRNA in the absence of chemical substance (yeast gene YML070W): 1.3
- The level of expressed mRNA in the presence of chemical substance/The level of expressed mRNA in the absence of chemical substance (yeast gene YMR021C): 1.3
- The level of expressed mRNA in the presence of chemical substance/The level of expressed mRNA in the absence of chemical substance (yeast gene YMR173W): 2.3
- The level of expressed mRNA in the presence of chemical substance/The level of expressed mRNA in the absence of chemical substance (yeast gene YMR186W): 0.6
- The level of expressed mRNA in the presence of chemical substance/The level of expressed mRNA in the absence of chemical substance (yeast gene YNL064C): 0.8
- The level of expressed mRNA in the presence of chemical substance/The level of expressed mRNA in the absence of chemical substance (yeast gene YNL160W): 1.3
- The level of expressed mRNA in the presence of chemical substance/The level of expressed mRNA in the absence of chemical substance (yeast gene YNL241C): 1.1
- The level of expressed mRNA in the presence of chemical substance/The level of expressed mRNA in the absence of chemical substance (yeast gene YNR076W): 0.8
- The level of expressed mRNA in the presence of chemical substance/The level of expressed mRNA in the absence of chemical substance (yeast gene YOL064C): 0.9
- The level of expressed mRNA in the presence of chemical substance/The level of expressed mRNA in the absence of chemical substance (yeast gene YOL161C): 0.9
- The level of expressed mRNA in the presence of chemical substance/The level of expressed mRNA in the absence of chemical substance (yeast gene YOR008C): 0.9
- The level of expressed mRNA in the presence of chemical substance/The level of expressed mRNA in the absence of chemical substance (yeast gene YOR009W): 0.7
- The level of expressed mRNA in the presence of chemical substance/The level of expressed mRNA in the absence of chemical substance (yeast gene YOR010C): 0.4
- The level of expressed mRNA in the presence of chemical substance/The level of expressed mRNA in the absence of chemical substance (yeast gene YOR027W): 0.8
- The level of expressed mRNA in the presence of chemical substance/The level of expressed mRNA in the absence of chemical substance (yeast gene YOR208W): 1.3
- The level of expressed mRNA in the presence of chemical substance/The level of expressed mRNA in the absence of chemical substance (yeast gene YPL059W): 1.3
- The level of expressed mRNA in the presence of chemical substance/The level of expressed mRNA in the absence of chemical substance (yeast gene YPL106C): 0.9
- The level of expressed mRNA in the presence of chemical substance/The level of expressed mRNA in the absence of chemical substance (yeast gene YPL140C): 1.1
- The level of expressed mRNA in the presence of chemical substance/The level of expressed mRNA in the absence of chemical substance (yeast gene YPL194W): 1.1
- The level of expressed mRNA in the presence of chemical substance/The level of expressed mRNA in the absence of chemical substance (yeast gene YPL223C): 2.5
- The level of expressed mRNA in the presence of chemical substance/The level of expressed mRNA in the absence of chemical substance (yeast gene YPL240C): 0.7
- The level of expressed mRNA in the presence of chemical substance/The level of expressed mRNA in the absence of chemical substance (yeast gene YPR005C): 1.3
- The level of expressed mRNA in the presence of chemical substance/The level of expressed mRNA in the absence of chemical substance (yeast gene YPR026W): 1.5

From patent US8192962B2, “Processes for detecting toxic substances” (Daikin Industries, Ltd., priority 2001, dated 2012)
